Data reported in patent publication US11957687B2 (REGENERON PHARMACEUTICALS, INC., priority 2019, dated 2024).

Biological target: HSD17B13 (Homo sapiens (Human), UniProt Q7Z5P4)
Assay: HSD17B13 enzymatic inhibition assay (150 nM or 50 nM HSD17B13)
Format: biochemical
Conditions: 50 nM HSD17B13; read-out: Inhibition of 50 nM of HSD17B13 IC50

HSD17B13, sequence (Q7Z5P4 other isoform, or with tags, fused parts or gaps): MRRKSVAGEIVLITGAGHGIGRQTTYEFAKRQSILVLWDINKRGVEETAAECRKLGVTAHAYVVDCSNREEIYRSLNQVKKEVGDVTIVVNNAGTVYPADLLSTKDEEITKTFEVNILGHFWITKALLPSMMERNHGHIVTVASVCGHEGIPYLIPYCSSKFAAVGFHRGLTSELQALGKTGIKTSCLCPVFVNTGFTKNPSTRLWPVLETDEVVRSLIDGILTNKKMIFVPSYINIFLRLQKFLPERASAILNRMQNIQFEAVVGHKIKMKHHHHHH

Compound	IC50
O=C(NC1c2ccc(Cl)cc2Oc2cc(Cl)ccc21)c1cnc(COc2ccc(C(F)(F)F)cc2)[nH]c1=O [Compound 517, N-(3,6-dichloro-9H-xanthen-9-yl)-6-oxo-2-((4-(trifluoromethyl)phenoxy)methyl)-1,6-dihydropyrimidine-5-carboxamide]	570 nM
Cc1ccc2c(c1)NCCC2NC(=O)c1ccc(C(F)(F)F)[nH]c1=O (stereo not shown) [Compound 518, N-(7-methyl-1,2,3,4-tetrahydroquinolin-4-yl)-2-oxo-6-(trifluoromethyl)-1,2-dihydropyridine-3-carboxamide]	560 nM
Nc1ccc(CSc2ncc(C(=O)NC3c4ccc(Cl)cc4Oc4cc(Cl)ccc43)c(=O)[nH]2)cc1C(F)(F)F [Compound 522, 2-((4-amino-3-(trifluoromethyl)benzyl)thio)-N-(3,6-dichloro-9H-xanthen-9-yl)-6-oxo-1,6-dihydropyrimidine-5-carboxamide]	610 nM
Cc1ccc2c(c1)Oc1cccc(C)c1C2NC(=O)c1cc(CCN(C)C)c(C(F)(F)F)[nH]c1=O (stereo not shown) [Compound 523, N-(1,6-dimethyl-9H-xanthen-9-yl)-5-(2-(dimethylamino)ethyl)-2-oxo-6-(trifluoromethyl)-1,2-dihydropyridine-3-carboxamide]	> 10000 nM
CNCCc1cc(C(=O)NC2c3ccc(C)cc3Oc3cccc(C)c32)c(=O)[nH]c1C(F)(F)F (stereo not shown) [Compound 524, N-(1,6-dimethyl-9H-xanthen-9-yl)-5-(2-(methylamino)ethyl)-2-oxo-6-(trifluoromethyl)-1,2-dihydropyridine-3-carboxamide]	9330 nM
CNCc1cc(C(=O)NC2c3ccc(C)cc3Oc3cccc(C)c32)c(=O)[nH]c1C(F)(F)F (stereo not shown) [Compound 525, N-(1,6-dimethyl-9H-xanthen-9-yl)-5-((methylamino)methyl)-2-oxo-6-(trifluoromethyl)-1,2-dihydropyridine-3-carboxamide]	6510 nM
Cc1ccc2c(c1)Oc1cccc(C)c1C2NC(=O)c1cc(CN(C)C)c(C(F)(F)F)[nH]c1=O (stereo not shown) [Compound 526, N-(1,6-dimethyl-9H-xanthen-9-yl)-5-((dimethylamino)methyl)-2-oxo-6-(trifluoromethyl)-1,2-dihydropyridine-3-carboxamide]	3780 nM
N#Cc1cccc2c1C(NC(=O)c1ccc(C(F)(F)F)[nH]c1=O)c1ccccc1O2 (stereo not shown) [Compound 527, N-(1-cyano-9H-xanthen-9-yl)-2-oxo-6-(trifluoromethyl)-1,2-dihydropyridine-3-carboxamide]	990 nM
O=C(NC1c2ccc(Cl)cc2Oc2cccc(Cl)c21)c1cnc(SCc2ccccc2C(F)(F)F)[nH]c1=O (stereo not shown) [Compound 529, N-(1,6-dichloro-9H-xanthen-9-yl)-6-oxo-2-((2-(trifluoromethyl)benzyl)thio)-1,6-dihydropyrimidine-5-carboxamide]	> 10000 nM
CCc1cccc2c1CCCC2NC(=O)c1ccc(C(F)(F)F)[nH]c1=O (stereo not shown) [Compound 530, N-(5-ethyl-1,2,3,4-tetrahydronaphthalen-1-yl)-2-oxo-6-(trifluoromethyl)-1,2-dihydropyridine-3-carboxamide]	> 10000 nM
CCCc1cccc2c1CCCC2NC(=O)c1ccc(C(F)(F)F)[nH]c1=O (stereo not shown) [Compound 531, 2-oxo-N-(5-propyl-1,2,3,4-tetrahydronaphthalen-1-yl)-6-(trifluoromethyl)-1,2-dihydropyridine-3-carboxamide]	> 10000 nM
C=CCc1cccc2c1CCCC2NC(=O)c1ccc(C(F)(F)F)[nH]c1=O (stereo not shown) [Compound 532, N-(5-allyl-1,2,3,4-tetrahydronaphthalen-1-yl)-2-oxo-6-(trifluoromethyl)-1,2-dihydropyridine-3-carboxamide]	5200 nM
O=C(NC1c2ccc(Cl)cc2Oc2cc(Cl)ccc21)c1cnc(COc2cccc(C(F)(F)F)c2)[nH]c1=O [Compound 534, N-(3,6-dichloro-9H-xanthen-9-yl)-6-oxo-2-((3-(trifluoromethyl)phenoxy)methyl)-1,6-dihydropyrimidine-5-carboxamide]	1080 nM
Cc1ccc2c(c1)Sc1cc(C)ccc1C2NC(=O)c1cc(Br)c(C(F)(F)F)[nH]c1=O [Compound 535, 5-bromo-N-(3,6-dimethyl-9H-thioxanthen-9-yl)-2-oxo-6-(trifluoromethyl)-1,2-dihydropyridine-3-carboxamide]	50 nM
C=Cc1ccc2c(c1)C(NC(=O)c1ccc(C(F)(F)F)[nH]c1=O)c1ccccc1S2 (stereo not shown) [Compound 536, 2-oxo-6-(trifluoromethyl)-N-(2-vinyl-9H-thioxanthen-9-yl)-1,2-dihydropyridine-3-carboxamide]	320 nM
CCc1ccc2c(c1)C(NC(=O)c1ccc(C(F)(F)F)[nH]c1=O)c1ccccc1S2 (stereo not shown) [Compound 537, N-(2-ethyl-9H-thioxanthen-9-yl)-2-oxo-6-(trifluoromethyl)-1,2-dihydropyridine-3-carboxamide]	150 nM

Now from value to compound:

IC50	Compound
40 nM	C=Cc1cc(C(=O)NC2c3ccc(C)cc3Sc3cc(C)ccc32)c(=O)[nH]c1C(F)(F)F [Compound 538, N-(3,6-dimethyl-9H-thioxanthen-9-yl)-2-oxo-6-(trifluoromethyl)-5-vinyl-1,2-dihydropyridine-3-carboxamide]
740 nM	C=CCc1cccc(C(NC(=O)c2ccc(C(F)(F)F)[nH]c2=O)c2ccccc2)c1 (stereo not shown) [Compound 539, N-((3-allylphenyl)(phenyl)methyl)-2-oxo-6-(trifluoromethyl)-1,2-dihydropyridine-3-carboxamide]
1130 nM	CSc1cc(C)ccc1C(NC(=O)c1ccc(C(F)(F)F)[nH]c1=O)c1ccccc1 (stereo not shown) [Compound 540, N-((4-methyl-2-(methylthio)phenyl)(phenyl)methyl)-2-oxo-6-(trifluoromethyl)-1,2-dihydropyridine-3-carboxamide]
60 nM	Cc1ccc2c(c1)O[C@@H]1CCCC[C@H]1[C@H]2NC(=O)c1ccc(C(F)(F)F)[nH]c1=O [Compound 541, N-((4aR,9R,9aS)-6-methyl-2,3,4,4a,9,9a-hexahydro-1H-xanthen-9-yl)-2-oxo-6-(trifluoromethyl)-1,2-dihydropyridine-3-carboxamide]
4670 nM	CCCC1=C(NC(=O)c2ccc(C(F)(F)F)[nH]c2=O)c2cc(C)ccc2C1=O [Compound 542, N-(5-methyl-1-oxo-2-propyl-1H-inden-3-yl)-2-oxo-6-(trifluoromethyl)-1,2-dihydropyridine-3-carboxamide]
1150 nM	CCCC1=C(NC(=O)c2ccc(C(F)(F)F)[nH]c2=O)c2cc(C)ccc2C1O (stereo not shown) [Compound 544, N-(1-hydroxy-5-methyl-2-propyl-1H-inden-3-yl)-2-oxo-6-(trifluoromethyl)-1,2-dihydropyridine-3-carboxamide]
> 10000 nM	Cc1ccc2c(c1)N(C(=O)OC(C)(C)C)CCC2NC(=O)c1ccc(C(F)(F)F)[nH]c1=O (stereo not shown) [Compound 546, tert-butyl 7-methyl-4-(2-oxo-6-(trifluoromethyl)-1,2-dihydropyridine-3-carboxamido)-3,4-dihydroquinoline-1(2H)-carboxylate]
6240 nM	C=Cc1cccc2c1CCCC2NC(=O)c1ccc(C(F)(F)F)[nH]c1=O (stereo not shown) [Compound 547, 2-oxo-6-(trifluoromethyl)-N-(5-vinyl-1,2,3,4-tetrahydronaphthalen-1-yl)-1,2-dihydropyridine-3-carboxamide]
9280 nM	O=C(NC1CCCc2c(/C=C/c3ccccc3)cccc21)c1ccc(C(F)(F)F)[nH]c1=O (stereo not shown) [Compound 548, (E)-2-oxo-N-(5-styryl-1,2,3,4-tetrahydronaphthalen-1-yl)-6-(trifluoromethyl)-1,2-dihydropyridine-3-carboxamide]
8370 nM	N#Cc1cccc2c1CCCC2NC(=O)c1ccc(C(F)(F)F)[nH]c1=O (stereo not shown) [Compound 549, N-(5-cyano-1,2,3,4-tetrahydronaphthalen-1-yl)-2-oxo-6-(trifluoromethyl)-1,2-dihydropyridine-3-carboxamide]
1600 nM	Cc1ccc(C(CC2CCCO2)NC(=O)c2ccc(C(F)(F)F)[nH]c2=O)cc1 (stereo not shown) [Compound 550, 2-oxo-N-(2-(tetrahydrofuran-2-yl)-1-(p-tolyl)ethyl)-6-(trifluoromethyl)-1,2-dihydropyridine-3-carboxamide]
2690 nM	Cc1ccc(C(CC2CCOCC2)NC(=O)c2ccc(C(F)(F)F)[nH]c2=O)cc1 (stereo not shown) [Compound 551, 2-oxo-N-(2-(tetrahydro-2H-pyran-4-yl)-1-(p-tolyl)ethyl)-6-(trifluoromethyl)-1,2-dihydropyridine-3-carboxamide]
590 nM	CC[C@H](C[C@@H](NC(=O)c1ccc(C(F)(F)F)[nH]c1=O)c1ccc(C)cc1)OC [Compound 552, N-((1R,3R)-3-methoxy-1-(p-tolyl)pentyl)-2-oxo-6-(trifluoromethyl)-1,2-dihydropyridine-3-carboxamide]
2080 nM	CC[C@@H](C[C@@H](NC(=O)c1ccc(C(F)(F)F)[nH]c1=O)c1ccc(C)cc1)OC [Compound 553, N-((1R,3S)-3-methoxy-1-(p-tolyl)pentyl)-2-oxo-6-(trifluoromethyl)-1,2-dihydropyridine-3-carboxamide]
2350 nM	CC[C@@H](O)C[C@@H](NC(=O)c1ccc(C(F)(F)F)[nH]c1=O)c1ccc(C)cc1 [Compound 554, N-((1R,3R)-3-hydroxy-1-(p-tolyl)pentyl)-2-oxo-6-(trifluoromethyl)-1,2-dihydropyridine-3-carboxamide]
> 10000 nM	CC[C@H](O)C[C@@H](NC(=O)c1ccc(C(F)(F)F)[nH]c1=O)c1ccc(C)cc1 [Compound 555, N-((1R,3S)-3-hydroxy-1-(p-tolyl)pentyl)-2-oxo-6-(trifluoromethyl)-1,2-dihydropyridine-3-carboxamide]
2350 nM	Cc1ccc(C(CC2CCOC2)NC(=O)c2ccc(C(F)(F)F)[nH]c2=O)cc1 (stereo not shown) [Compound 556, 2-oxo-N-(2-(tetrahydrofuran-3-yl)-1-(p-tolyl)ethyl)-6-(trifluoromethyl)-1,2-dihydropyridine-3-carboxamide]
4570 nM	Cc1ccc(C(NC(=O)c2ccc(C(F)(F)F)[nH]c2=O)C2CCOCC2)cc1 (stereo not shown) [Compound 558, 2-oxo-N-((tetrahydro-2H-pyran-4-yl)(p-tolyl)methyl)-6-(trifluoromethyl)-1,2-dihydropyridine-3-carboxamide]
